US8614182B2 (Jiangsu Hansoh Pharmaceuticals Co., Ltd., priority 2009, dated 2013)
Non-standard residues stand in square brackets, D forms with d. Residues, ends and D or L forms follow the SMILES beside them. *: point of attachment. εLys(Nα-Palmitoyl) = CCCCCCCCCCCCCCCC(=O)N[C@@H](CCCCN*)C(=O)O

How the values were obtained:
[1] = target: T1, Glucagon-like peptide-1 receptor (GLP1R) (Homo sapiens, UniProt P43220); test: Agonist activity on GLP1R, cAMP response element luciferase reporter gene in HEK293 cells; type: cell-based; conditions: HEK293 cells stably transfected with GLP1R and pCRE-Luc, 5 hours incubation; read-out: Maximum reaction rate
T1 construct: expressed in transfected cells; host or cells: HEK293
T1 sequence (P43220 24-463, species assumed): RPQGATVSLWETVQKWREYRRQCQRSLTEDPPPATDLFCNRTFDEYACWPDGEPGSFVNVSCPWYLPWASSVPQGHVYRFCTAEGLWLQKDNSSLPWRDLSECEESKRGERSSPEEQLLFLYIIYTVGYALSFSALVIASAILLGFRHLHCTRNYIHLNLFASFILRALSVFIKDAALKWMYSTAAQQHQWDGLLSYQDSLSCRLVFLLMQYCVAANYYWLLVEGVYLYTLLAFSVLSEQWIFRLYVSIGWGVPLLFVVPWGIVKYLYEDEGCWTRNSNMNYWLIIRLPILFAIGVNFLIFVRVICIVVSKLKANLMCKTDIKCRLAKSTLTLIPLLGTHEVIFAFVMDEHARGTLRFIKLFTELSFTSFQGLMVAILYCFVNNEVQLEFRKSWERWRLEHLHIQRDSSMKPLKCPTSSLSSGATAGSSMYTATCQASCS
Description: GLP1R is a receptor coupled with Gs protein, of which the binding with the agonists will result in an increase of intracellular cAMP concentration. In the present experiment, GLP1R and the luciferase reporter gene plasmid regulated by cAMP response elements are co-transfected into HEK293 cells. When the compound binds to the receptor and activates the receptors, the expression of the luciferase will increase. The activation status of the compound to GLP1R can be learned by testing the activity of the luciferase.
2. The compounds or positive drugs having a certain concentration gradient were added (3 wells per concentration) and incubated at 37° C. for 5 hours. The negative control was solvent DMSO.
3. 50 μl culture medium was taken from each well, and 50 μl of the luciferase substrate were added and vortexed for 10 minutes.
4. 80 μl reaction solution was taken and transferred to a white 96 well plate, then detected on the Invision microplate reader (enzyme-labelling measuring instrument).

[2] = tested on: db/db mice with type 2 diabetes; test: Random blood glucose of db/db mice after single subcutaneous injection; type: in vivo; conditions: for random blood glucose: n = 8; for decrease rate of random blood glucose: versus control group
Protocol: db/db mice with type 2 diabetes were divided into six groups based on a random blood glucose and body weight (8 per group). […] The random blood glucose of the mice is determined at differete time after administration.
Preparation method: 1 bottle of the compound (2 mg/bottle) was dissolved with double-distilled water to prepare a colorless and transparent solution of which the concentration is 2 mg/mL. […] “ACCU-CHEK® Advantage” blood glucose meter form Roche was used to determine the blood glucose.
Route and volume of administration: Single subcutaneous injection dose, dose volume was 5 mL/kg. […]
The random blood glucoses of db/db mice were measured.
Each group has 8 mice, half male and half female. The animals of each group were administered with the test compounds or solvent control respectively through single subcutaneous injection.

CCCCCCCCCCCCCCCC(=O)N[C@@H](CCCCNC(=O)[C@H](CO)NC(=O)[C@@H]1CCCN1C(=O)[C@@H]1CCCN1C(=O)[C@@H]1CCCN1C(=O)[C@H](C)NC(=O)CNC(=O)[C@H](CO)NC(=O)[C@H](CO)NC(=O)[C@@H]1CCCN1C(=O)CNC(=O)CNC(=O)[C@H](CCCNC(=N)N)NC(=O)[C@@H](NC(=O)[C@H](CC(C)C)NC(=O)[C@H](Cc1c[nH]c2ccccc12)NC(=O)[C@H](C)NC(=O)[C@@H](NC(=O)[C@H](Cc1ccccc1)NC(=O)[C@H](CCC(=O)O)NC(=O)[C@H](CCCCN)NC(=O)[C@H](C)NC(=O)[C@H](C)NC(=O)[C@H](CCC(=O)O)NC(=O)[C@H](CCC(=O)O)NC(=O)[C@H](CCC(=O)O)NC(=O)[C@H](CC(C)C)NC(=O)[C@H](Cc1ccc(O)cc1)NC(=O)[C@H](CO)NC(=O)[C@H](CO)NC(=O)[C@@H](NC(=O)[C@H](CC(=O)O)NC(=O)[C@H](CO)NC(=O)[C@@H](NC(=O)[C@H](Cc1ccccc1)NC(=O)[C@@H](NC(=O)CNC(=O)[C@H](CCC(=O)O)NC(=O)[C@@H](C)NC(=O)[C@@H](N)Cc1c[nH]cn1)[C@@H](C)O)[C@@H](C)O)C(C)C)[C@@H](C)CC)C(C)C)C(=O)O [HS-20003] (H-H[dA]EGTFTSDVSSYLEEEAAKEFIAWLVRGGPSSGAPPPS-{εLys(Nα-Palmitoyl)}; N-terminus and C-terminus assumed)
Emax [1]: 87.9%
random blood glucose ([2]; 3 μg/kg single s.c., 1 h after administration, X ± s): 19.56 ± 1.19 mmol/L
decrease rate of random blood glucose ([2]; 3 μg/kg single s.c., 1 h after administration): 17.33%
random blood glucose ([2]; 3 μg/kg single s.c., 2 h after administration, X ± s): 19.44 ± 1.48 mmol/L
decrease rate of random blood glucose ([2]; 3 μg/kg single s.c., 2 h after administration): 14.09%
random blood glucose ([2]; 3 μg/kg single s.c., 4 h after administration, X ± s): 19.63 ± 1.12 mmol/L
decrease rate of random blood glucose ([2]; 3 μg/kg single s.c., 4 h after administration): 10.80%
random blood glucose ([2]; 3 μg/kg single s.c., 8 h after administration, X ± s): 22.59 ± 1.05 mmol/L
decrease rate of random blood glucose ([2]; 3 μg/kg single s.c., 8 h after administration): 11.03%
random blood glucose values compared with those of the control group ([2]; 3 μg/kg single s.c., after 2 h, 4 h and 8 h): no significant difference
random blood glucose values compared with those of the control group ([2]; 3 μg/kg single s.c., after one hour, P<0.05): decreased significantly
random blood glucose ([2]; 3 μg/kg single s.c., before administration, X ± s): 25.16 ± 1.49 mmol/L
decrease rate of random blood glucose ([2]; 10 μg/kg single s.c., 1 h after administration): 23.62%
random blood glucose ([2]; 10 μg/kg single s.c., 1 h after administration, ± s): 20.74 ± 0.98 mmol/L
decrease rate of random blood glucose ([2]; 10 μg/kg single s.c., 2 h after administration): 25.93%
random blood glucose ([2]; 10 μg/kg single s.c., 2 h after administration, ± s): 21.10 ± 0.80 mmol/L
decrease rate of random blood glucose ([2]; 10 μg/kg single s.c., 4 h after administration): 36.49%
random blood glucose ([2]; 10 μg/kg single s.c., 4 h after administration, ± s): 19.54 ± 1.80 mmol/L
decrease rate of random blood glucose ([2]; 10 μg/kg single s.c., 8 h after administration): 26.12%
random blood glucose ([2]; 10 μg/kg single s.c., 8 h after administration, ± s): 22.14 ± 2.16 mmol/L
decrease rate of random blood glucose ([2]; 10 μg/kg single s.c., 24 h after administration): 11.89%
random blood glucose ([2]; 10 μg/kg single s.c., 24 h after administration, ± s): 24.45 ± 1.55 mmol/L
random blood glucose values compared with those of the control group ([2]; 10 μg/kg single s.c., after 2 h, 4 h and 8 h): still keep at a lower level
random blood glucose values compared with those of the control group ([2]; 10 μg/kg single s.c., after 24 hours): no significant difference
random blood glucose values compared with those of the control group ([2]; 10 μg/kg single s.c., after one hour, P<0.01): decreased significantly
random blood glucose ([2]; 10 μg/kg single s.c., before administration, ± s): 23.20 ± 1.36 mmol/L
random blood glucose level (words, test conclusions) ([2]; single s.c., dose of 3 μg/kg (so in the source)): decreased obviously

CCCCCCCCCCCCCCCC(=O)N[C@@H](CCCCNC(=O)[C@H](CO)NC(=O)[C@@H]1CCCN1C(=O)[C@@H]1CCCN1C(=O)[C@@H]1CCCN1C(=O)CNC(=O)CNC(=O)[C@H](CCCCN)NC(=O)[C@H](CCCCN)NC(=O)CNC(=O)[C@H](CCCNC(=N)N)NC(=O)CNC(=O)[C@H](CCCCN)NC(=O)[C@@H](NC(=O)[C@H](CC(C)C)NC(=O)[C@H](Cc1c[nH]c2ccccc12)NC(=O)[C@@H](NC(=O)[C@@H](NC(=O)[C@H](Cc1ccccc1)NC(=O)[C@H](CCC(=O)O)NC(=O)[C@H](C)NC(=O)[C@H](C)NC(=O)[C@H](CCC(N)=O)NC(=O)CNC(=O)[C@H](CCC(=O)O)NC(=O)[C@H](CC(C)C)NC(=O)[C@H](Cc1ccc(O)cc1)NC(=O)[C@H](CO)NC(=O)[C@H](CO)NC(=O)[C@@H](NC(=O)[C@H](CC(=O)O)NC(=O)[C@H](CO)NC(=O)[C@@H](NC(=O)[C@H](Cc1ccccc1)NC(=O)[C@@H](NC(=O)CNC(=O)[C@H](CCC(=O)O)NC(=O)[C@H](C)NC(=O)[C@@H](N)Cc1c[nH]cn1)[C@@H](C)O)[C@@H](C)O)C(C)C)[C@@H](C)CC)C(C)C)C(C)C)C(=O)O [HS-20005]
Emax [1]: 89.1%

CCCCCCCCCCCCCCCC(=O)N[C@@H](CCCCNC(=O)[C@H](CO)NC(=O)[C@@H]1CCCN1C(=O)[C@@H]1CCCN1C(=O)[C@@H]1CCCN1C(=O)CNC(=O)CNC(=O)[C@H](CCCCN)NC(=O)[C@H](CCCCN)NC(=O)CNC(=O)[C@H](CCCNC(=N)N)NC(=O)CNC(=O)[C@H](CCCCN)NC(=O)[C@@H](NC(=O)[C@H](CC(C)C)NC(=O)[C@H](Cc1c[nH]c2ccccc12)NC(=O)[C@@H](NC(=O)[C@@H](NC(=O)[C@H](Cc1ccccc1)NC(=O)[C@H](CCC(=O)O)NC(=O)[C@H](C)NC(=O)[C@H](C)NC(=O)[C@H](CCC(N)=O)NC(=O)[C@H](CCC(=O)O)NC(=O)[C@H](CCC(=O)O)NC(=O)[C@H](CC(C)C)NC(=O)[C@H](Cc1ccc(O)cc1)NC(=O)[C@H](CO)NC(=O)[C@H](CO)NC(=O)[C@@H](NC(=O)[C@H](CC(=O)O)NC(=O)[C@H](CO)NC(=O)[C@@H](NC(=O)[C@H](Cc1ccccc1)NC(=O)[C@@H](NC(=O)CNC(=O)[C@H](CCC(=O)O)NC(=O)[C@H](C)NC(=O)[C@@H](N)Cc1c[nH]cn1)[C@@H](C)O)[C@@H](C)O)C(C)C)[C@@H](C)CC)C(C)C)C(C)C)C(=O)O [HS-20007]
Emax [1]: 87%
